{"source": "PubChem BioAssay AID1918947", "about": "(Molecular Pharmacology Branch, DTP, NCI, 2023)", "system": "A498 complex spheroid viability", "assay": "Anticancer human tumor A498 cell line growth inhibition;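 for all read-outs here: spheroids exposed to agents for seven days before readout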;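 for viability, T/C: 100% = DMSO vehicle-treated spheroids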", "conditions": "for IC50: curve of first compound; for viability, T/C: stronger effect = lower value", "excerpt": "Multicellular complex tumor spheroid response to LSD1 Inhibitor Iadademstat in combination with a variety of drugs and investigational agents in selected tumor cell lines\nThe current study was undertaken to assess response to LSD1 inhibitors in combination with standard-of-care drugs and investigational agents in solid tumor complex spheroid models as well as in the K-562 leukemia. Complex spheroids include a stromal component modeled by human endothelial cells (HUVEC) and fibroblasts modeled by human mesenchymal stem cells (MSCs). The concentration ranges selected for each drug and investigational agent were based upon clinically achievable concentrations if the clinical Cmax of the agent was known.\nCompounds. The drugs and investigational agents used in this study are listed on Table 1. All of the agents used, including staurosporine (NSC755774) and gemcitabine (NSC613327), were obtained from the Developmental Therapeutics Program, NCI. FDA-approved anticancer drugs are available from the NCI at http://dtp.nci.nih.gov/branches/dscb/oncology_drugset_explanation.html. Drugs and investigational agents were >95% pure by proton nuclear magnetic resonance (NMR) and liquid chromatography/mass spectrometry (LC/MS). Stock solutions were prepared at 400x in DMSO, stored at -70 degrees C, and diluted in fresh medium prior to their use. The final concentration of DMSO in cell culture wells never exceeded 0.25% (v/v). The FDA-approved anticancer drug set is available from the Developmental Therapeutics Program at https://dtp.cancer.gov/organization/dscb/obtaining/available_plates.htm. All drugs and investigational agents were tested over a range starting from a high concentration at or near the clinical Cmax and decreasing in half-log increments. If the clinical Cmax for an agent had not been determined, the highest concentration tested was 10 microM.\nCell Lines. The patient-derived cancer cell (PDC) lines: 292921-168-R-J2-PDC, K24384-001-R-PDC, and 521955-158-R2-J5-PDC pancreatic carcinomas, 556581-035-R-J1 ovarian carcinoma, 324938-238-R-J1-PDC, 855422-203-R-J1-PDC and 883617-216-R-J1-PDC urothelial bladder carcinomas, 743489-274-T-PDC renal cell carcinoma, 138582-R-J1 Merkel cell tumor, K60290-347-R-J1 and K57222-313-R-J1-PDC glioblastomas, 653999-131-R-J2-PDC, LG0703-F948-PDC, and 349418-098-R-PDC non-small cell lung carcinomas, 885512-296-R-J2-PDC, 171881-019-R-J1-PDC breast carcinomas and 186277-243-T-J2-PDC and 233499-124-R-J2-PDC colon carcinomas were obtained from the NCI Patient-Derived Models Repository (PDMR, https://pdmr.cancer.gov). The established cell lines NCI/ADR-RES (RRID:CVCL_14520 and OVCAR-5 (RRID:CVCL_1628) ovarian carcinomas, 786-O (RRID:CVCL_1051) and A498 (RRID:CVCL_A498) renal cell carcinoma, NCI-H211 (ATCC, cat. CRL-5824; RRID:CVCL_1529), NCI-H196 (ATCC, cat. CRL-5823, RRID:CVCL_1509), SW 1271 (ATCC, cat. CRL-2177, RRID:CVCL_1716) and NCI-H1876 (ATCC, cat. CRL-5902, RRID:CVCL_1503) small cell lung carcinomas, MDA-MB-231 (RRID:CVCL_0062) and MDA-MB-468 (RRID:CVCL_0419)breast carcinomas (10-12). Pooled donor human umbilical vein endothelial cells (HUVEC, Lonza, cat. CC-2519) and human mesenchymal stem cells (hMSC, Lonza, cat. PT-2501) were purchased from Lonza (Walkersville, MD).\nCell Culture. All cells were maintained in an incubator at 37 degrees C and 5% CO2 with 95% humidity. The PDC lines were cultured according to standard operating procedures established by the NCI PDMR (https://pdmr.cancer.gov). Briefly all PDCs were thawed and cultured in Matrigel-coated flasks prepared with a working solution of 1X Ham's F-12 nutrient mix, without supplementation (Invitrogen, Waltham, MA, cat. 11765054), 100 U/mL penicillin-streptomycin (Invitrogen, cat. 15140122), and 2.5% Matrigel (Corning Inc., Corning, NY, cat. 354248) for the first three passages. […]", "data": [{"compound": "CC1(C)CCC(CN2CCN(c3ccc(C(=O)NS(=O)(=O)c4ccc(NCC5CCOCC5)c([N+](=O)[O-])c4)c(Oc4cnc5[nH]ccc5c4)c3)CC2)=C(c2ccc(Cl)cc2)C1", "note": "+ NC1CCC(NC2CC2c2ccccc2)CC1", "values": [{"measurement": "IC50", "setting": "second compound 0.1 µM", "value": 3.67, "unit": "µM"}, {"measurement": "IC50", "setting": "second compound 0.316 µM", "value": 3.89, "unit": "µM"}, {"measurement": "IC50", "setting": "second compound 1 µM", "value": 3.47, "unit": "µM"}, {"measurement": "IC50", "setting": "second compound 3.16 µM", "value": 2.71, "unit": "µM"}, {"measurement": "IC50", "setting": "second compound 10 µM", "value": 1.97, "unit": "µM"}, {"measurement": "viability, T/C", "setting": "second compound 0.1 µM, first compound 0.0316 µM", "value": 87.7, "unit": "%"}, {"measurement": "viability, T/C", "setting": "second compound 0.1 µM, first compound 0.1 µM", "value": 89.2, "unit": "%"}, {"measurement": "viability, T/C", "setting": "second compound 0.1 µM, first compound 0.316 µM", "value": 85.5, "unit": "%"}, {"measurement": "viability, T/C", "setting": "second compound 0.1 µM, first compound 1 µM", "value": 76.4, "unit": "%"}, {"measurement": "viability, T/C", "setting": "second compound 0.1 µM, first compound 3.16 µM", "value": 57.5, "unit": "%"}, {"measurement": "viability, T/C", "setting": "second compound 0.1 µM, first compound 10 µM", "value": 3.91, "unit": "%"}, {"measurement": "viability, T/C", "setting": "second compound 0.316 µM, first compound 0.0316 µM", "value": 87.2, "unit": "%"}, {"measurement": "viability, T/C", "setting": "second compound 0.316 µM, first compound 0.1 µM", "value": 92.6, "unit": "%"}, {"measurement": "viability, T/C", "setting": "second compound 0.316 µM, first compound 0.316 µM", "value": 91.3, "unit": "%"}, {"measurement": "viability, T/C", "setting": "second compound 0.316 µM, first compound 1 µM", "value": 79.1, "unit": "%"}, {"measurement": "viability, T/C", "setting": "second compound 0.316 µM, first compound 3.16 µM", "value": 60.7, "unit": "%"}, {"measurement": "viability, T/C", "setting": "second compound 0.316 µM, first compound 10 µM", "value": 4.52, "unit": "%"}, {"measurement": "viability, T/C", "setting": "second compound 1 µM, first compound 0.0316 µM", "value": 84.5, "unit": "%"}, {"measurement": "viability, T/C", "setting": "second compound 1 µM, first compound 0.1 µM", "value": 86.2, "unit": "%"}, {"measurement": "viability, T/C", "setting": "second compound 1 µM, first compound 0.316 µM", "value": 85.1, "unit": "%"}, {"measurement": "viability, T/C", "setting": "second compound 1 µM, first compound 1 µM", "value": 76.9, "unit": "%"}, {"measurement": "viability, T/C", "setting": "second compound 1 µM, first compound 3.16 µM", "value": 54.3, "unit": "%"}, {"measurement": "viability, T/C", "setting": "second compound 1 µM, first compound 10 µM", "value": 3.45, "unit": "%"}, {"measurement": "viability, T/C", "setting": "second compound 3.16 µM, first compound 0.0316 µM", "value": 82.5, "unit": "%"}, {"measurement": "viability, T/C", "setting": "second compound 3.16 µM, first compound 0.1 µM", "value": 85.5, "unit": "%"}, {"measurement": "viability, T/C", "setting": "second compound 3.16 µM, first compound 0.316 µM", "value": 80, "unit": "%"}, {"measurement": "viability, T/C", "setting": "second compound 3.16 µM, first compound 1 µM", "value": 70.2, "unit": "%"}, {"measurement": "viability, T/C", "setting": "second compound 3.16 µM, first compound 3.16 µM", "value": 47, "unit": "%"}, {"measurement": "viability, T/C", "setting": "second compound 3.16 µM, first compound 10 µM", "value": 3.58, "unit": "%"}, {"measurement": "viability, T/C", "setting": "second compound 10 µM, first compound 0.0316 µM", "value": 81.1, "unit": "%"}, {"measurement": "viability, T/C", "setting": "second compound 10 µM, first compound 0.1 µM", "value": 75.2, "unit": "%"}, {"measurement": "viability, T/C", "setting": "second compound 10 µM, first compound 0.316 µM", "value": 76.5, "unit": "%"}, {"measurement": "viability, T/C", "setting": "second compound 10 µM, first compound 1 µM", "value": 65.2, "unit": "%"}, {"measurement": "viability, T/C", "setting": "second compound 10 µM, first compound 3.16 µM", "value": 39.2, "unit": "%"}, {"measurement": "viability, T/C", "setting": "second compound 10 µM, first compound 10 µM", "value": 2.98, "unit": "%"}]}]}
